Each structure is given as a SMILES string. Several values for one entry are separate records, joined by “and”; a condition that tells them apart may be missing. Equal values may be shown once. Inconclusive results and toxic doses are left out.

This is an account of results in PubChem BioAssay AID248 (DTP/NCI, 2004).

This assay has as its system L1210 leukemia ip in BDF1 mice, survival T/C. Briefly: NCI In Vivo Anticancer Drug Screen. Data for tumor model L1210 Leukemia (intraperitoneal) in B6D2F1 (BDF1) mice. To be noted: endpoint: mean survival time, higher = longer survival. The method in brief:
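Value reflects the ratio of survival in compound-treated mice to survival in vehicle-treated controls, with both groups carrying the same transplanted tumor.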

Where [1] appears, read: dose: 25.0 mg/kg/injection, schedule: Q01DX009 (ip), vehicle: Klucel (hydroxypropylcellulose) (HPC).
Where [2] appears, read: dose: 50.0 mg/kg/injection, schedule: Q01DX009 (ip), vehicle: Klucel (hydroxypropylcellulose) (HPC).
[3] abbreviates: dose: 100.0 mg/kg/injection, schedule: Q01DX009 (ip), vehicle: Klucel (hydroxypropylcellulose) (HPC).
Where [4] appears, read: dose: 200.0 mg/kg/injection, schedule: Q01DX009 (ip), vehicle: Klucel (hydroxypropylcellulose) (HPC).
Setting [5] is: dose: 400.0 mg/kg/injection, schedule: Q01DX009 (ip), vehicle: Klucel (hydroxypropylcellulose) (HPC).
Where [6] appears, read: dose: 100.0 mg/kg/injection, schedule: Q04DX003 (ip), vehicle: Klucel (hydroxypropylcellulose) (HPC).
[7] abbreviates: dose: 200.0 mg/kg/injection, schedule: Q04DX003 (ip), vehicle: Klucel (hydroxypropylcellulose) (HPC).
Setting [8] is: dose: 400.0 mg/kg/injection, schedule: Q04DX003 (ip), vehicle: Klucel (hydroxypropylcellulose) (HPC).
[9] abbreviates: dose: 12.5 mg/kg/injection, schedule: Q01DX009 (ip), vehicle: saline.
[10] abbreviates: dose: 25.0 mg/kg/injection, schedule: Q01DX009 (ip), vehicle: saline.
The mark [11] stands for this setting: dose: 50.0 mg/kg/injection, schedule: Q01DX009 (ip), vehicle: saline with Tween-80.
[12] abbreviates: dose: 100.0 mg/kg/injection, schedule: Q01DX009 (ip), vehicle: saline with Tween-80.
Where [13] appears, read: dose: 200.0 mg/kg/injection, schedule: Q01DX009 (ip), vehicle: saline with Tween-80.
Where [14] appears, read: dose: 100.0 mg/kg/injection, schedule: Q01DX009 (ip), vehicle: saline.
Setting [15] is: dose: 200.0 mg/kg/injection, schedule: Q01DX009 (ip), vehicle: saline.
Setting [16] is: dose: 400.0 mg/kg/injection, schedule: Q01DX009 (ip), vehicle: saline.

`COc1ccc(C(=O)OCCN(CCN(CCOC(=O)c2ccc(OC)cc2)C(=O)c2ccc(OC)cc2)C(=O)c2ccc(OC)cc2)cc1`: the T/C by setting is: under setting [1], 88 % of control; under setting [2], 96 % of control; under setting [3], 89 % of control; under setting [4], 94 % of control; under setting [5], 105 % of control.

For `O=[N+]([O-])c1ccc([As+](c2ccccc2)(c2ccccc2)c2ccccc2)cc1`, the T/C (dose: 10.0 mg/kg/injection, schedule: Q01DX001 (ip), vehicle: saline) was 88 % of control and the T/C (dose: 20.0 mg/kg/injection, schedule: Q01DX001 (ip), vehicle: saline) was 92 % of control.

Consider `O=C(/C=C/c1ccccn1)c1ccccc1O`, for which the T/C reads like this: (dose: 12.5 mg/kg/injection, schedule: Q04DX003 (ip), vehicle: saline with Tween-80) 92 % of control; (dose: 25.0 mg/kg/injection, schedule: Q04DX003 (ip), vehicle: saline with Tween-80) 100 % of control; (dose: 50.0 mg/kg/injection, schedule: Q04DX003 (ip), vehicle: saline with Tween-80) 92 % of control.

As to `CCCCCCCCC(CCCCCCCC)CCc1ccccc1`, the T/C by setting is: (dose: 100.0 mg/kg/injection, schedule: Q01DX001 (ip), vehicle: saline + alcohol) 101 % of control; (dose: 200.0 mg/kg/injection, schedule: Q01DX001 (ip), vehicle: saline + alcohol) 100 % of control; (dose: 400.0 mg/kg/injection, schedule: Q01DX001 (ip), vehicle: saline + alcohol) 97 % of control.

For `Cc1ccc(/C=C2\CC(C)(C)c3ccccc3C2=O)cc1`, the T/C is 100 % of control (dose: 200.0 mg/kg/injection, schedule: Q04DX003 (ip), vehicle: saline with Tween-80) and 93 % of control (dose: 400.0 mg/kg/injection, schedule: Q04DX003 (ip), vehicle: saline with Tween-80).

For `O=C1C(C(O)c2ccccc2)SC(c2ccccc2)N1c1ccccc1` (configuration not stated), the T/C under setting [3] is 97 % of control; the T/C under setting [6] was 90 % of control; the T/C under setting [4] was 101 % of control; the T/C under setting [7] was 94 % of control; the T/C under setting [5] is 95 % of control; the T/C under setting [8] was 93 % of control.

On to `OCCNCCN1CCN(CCCN2c3ccccc3Sc3ccc(C(F)(F)F)cc32)CC1`, for which the T/C is, setting by setting: (dose: 6.25 mg/kg/injection, schedule: Q01DX009 (ip), vehicle: saline) 111 % of control; (dose: 6.25 mg/kg/injection, schedule: Q04DX003 (ip), vehicle: saline) 104 % of control; under setting [9], 105 % of control; (dose: 12.5 mg/kg/injection, schedule: Q04DX003 (ip), vehicle: saline) 101 % of control; under setting [10], 88 % of control; (dose: 25.0 mg/kg/injection, schedule: Q04DX003 (ip), vehicle: saline) 95 % of control.

For the molecule `C=CCOC(=N)c1ccccc1`, the T/C reads like this: under setting [11], 93 % of control; under setting [12], 105 % of control; under setting [13], 91 % of control.

Turning to `CNc1ccc2cc(Br)ccc2c1`, the T/C was 107 % of control (dose: 100.0 mg/kg/injection, schedule: Q01DX005 (ip), vehicle: Klucel (hydroxypropylcellulose) (HPC)); 107 % of control (dose: 200.0 mg/kg/injection, schedule: Q01DX005 (ip), vehicle: Klucel (hydroxypropylcellulose) (HPC)); 95 % of control under setting [7]; 95 % of control (dose: 400.0 mg/kg/injection, schedule: Q01DX005 (ip), vehicle: Klucel (hydroxypropylcellulose) (HPC)); 101 % of control under setting [8].

As for `COC(=O)CNc1cccc([N+](=O)[O-])c1`, the T/C runs as follows: under setting [6], 95 % of control; under setting [7], 102 % of control; under setting [8], 101 % of control.

Regarding `O=C(O)CCCC1CCCCC1.[Cu+2]`, the T/C by setting is: (dose: 2.5 mg/kg/injection, schedule: Q01DX009 (ip), vehicle: Klucel (hydroxypropylcellulose) (HPC)) 101 % of control; (dose: 2.5 mg/kg/injection, schedule: Q04DX003 (ip), vehicle: Klucel (hydroxypropylcellulose) (HPC)) 97 % of control; (dose: 5.0 mg/kg/injection, schedule: Q01DX009 (ip), vehicle: Klucel (hydroxypropylcellulose) (HPC)) 101 % of control; (dose: 5.0 mg/kg/injection, schedule: Q04DX003 (ip), vehicle: Klucel (hydroxypropylcellulose) (HPC)) 101 % of control; (dose: 10.0 mg/kg/injection, schedule: Q01DX009 (ip), vehicle: Klucel (hydroxypropylcellulose) (HPC)) 92 % of control; (dose: 10.0 mg/kg/injection, schedule: Q04DX003 (ip), vehicle: Klucel (hydroxypropylcellulose) (HPC)) 97 % of control.

On to `CCOC(=O)C[P+](c1ccc(C)cc1)(c1ccc(C)cc1)c1ccc(C)cc1`, for which the T/C (dose: 15.0 mg/kg/injection, schedule: Q01DX001 (ip), vehicle: carboxymethylcellulose (CMC)) was 86 % of control.

For the molecule `O=C(Nc1ccc(S(=O)(=O)F)cc1)/C(=C\c1ccc([N+](=O)[O-])cc1)c1cccc2ccccc12`, the T/C under setting [14] was 91 % of control, the T/C under setting [15] was 99 % of control and the T/C under setting [16] was 94 % of control.

For the molecule `CC(C)(N)COC(=O)c1ccccc1C(=O)O`, the T/C reads like this: (dose: 100.0 mg/kg/injection, schedule: Q01DX001 (ip), vehicle: saline) 91 % of control; (dose: 200.0 mg/kg/injection, schedule: Q01DX001 (ip), vehicle: saline) 96 % of control; (dose: 400.0 mg/kg/injection, schedule: Q01DX001 (ip), vehicle: saline) 94 % of control.

In the case of `O=C(OC1CCCCCCC1)C(F)(F)F`, the T/C runs as follows: under setting [3], 98 % of control; under setting [6], 104 % of control; under setting [4], 101 % of control; under setting [7], 105 % of control; under setting [5], 92 % of control; under setting [8], 105 % of control.

In the case of `CC(=O)CC(=O)NCc1cccnc1`, the T/C (dose: 50.0 mg/kg/injection, schedule: Q04DX003 (ip), vehicle: saline) is 106 % of control; the T/C under setting [14] was 93 % of control; the T/C (dose: 100.0 mg/kg/injection, schedule: Q04DX003 (ip), vehicle: saline) is 97 % of control; the T/C under setting [15] is 104 % of control; the T/C (dose: 200.0 mg/kg/injection, schedule: Q04DX003 (ip), vehicle: saline) was 94 % of control and 100 % of control; the T/C under setting [16] was 98 % of control. The T/C (dose: 400.0 mg/kg/injection, schedule: Q04DX003 (ip), vehicle: saline) was 96 % of control.

Turning to `c1ccc2c3c(sc2c1)CNCC3`, the T/C by setting is: under setting [1], 107 % of control; under setting [2], 101 % of control.

As for `O=C(Nc1cccc(C(=O)O)c1)Nc1cccc(Cl)c1Cl`, the T/C was 98 % of control under setting [3], 95 % of control under setting [4] and 105 % of control under setting [5].

Consider `COc1ccc([N+](=O)[O-])c2conc12`, for which the T/C was 95 % of control under setting [11], 98 % of control under setting [12] and 103 % of control under setting [13].

`O=S(=O)(O)c1ccccc1.O=S(=O)(O)c1ccccc1.[NH-]C1CCCCC1[NH-].[Pt+2]`: the T/C reads like this: (dose: 0.5 mg/kg/injection, schedule: Q04DX003 (ip), vehicle: dextrose) 112 % of control; (dose: 2.0 mg/kg/injection, schedule: Q04DX003 (ip), vehicle: dextrose) 154 % of control; (dose: 4.0 mg/kg/injection, schedule: Q04DX003 (ip), vehicle: dextrose) 173 % of control; (dose: 6.0 mg/kg/injection, schedule: Q04DX003 (ip), vehicle: dextrose) 182 % of control.

As for `OC(O)(C(F)(F)F)C(F)(F)F`, the T/C by setting is: (dose: 12.5 mg/kg/injection, schedule: Q01DX005 (ip), vehicle: saline) 108 % of control; under setting [9], 95 % of control; (dose: 25.0 mg/kg/injection, schedule: Q01DX005 (ip), vehicle: saline) 108 % of control; under setting [10], 104 % of control; (dose: 50.0 mg/kg/injection, schedule: Q01DX005 (ip), vehicle: saline) 104 % of control; (dose: 50.0 mg/kg/injection, schedule: Q01DX009 (ip), vehicle: saline) 92 % of control.
